# Reference: patent publication US12552854B2, “Peptides that block presentation of antigenic islet peptides by HLA-DQ8 and methods for treating type-1 diabetes” (Icahn School of Medicine at Mount Sinai, priority 2019, dated 2026)
# “And” between values parts separate entries of the source, which are not always exact repeats. Equal entries are not always repeated.
# Experiments:
# [1] = target: T1, HLA-DQ8 expressed on BSM cells (Homo sapiens, UniProt P01909+P01920, F237L); assay: Flow cytometric analysis of InsB:9-23 peptide binding to BSM cells; assay type: cell-based; settings: 10 μM peptide; flow cytometry
# T1 construct: BSM cells that express HLA-DQ8 on their surface; host or cells: BSM cells (B-cell line homozygous for HLA-DQ8)
# T1 sequence (P01920 33-261 A45G/Y58L/E77G/D89A/H199R/T217I, other chains not shown): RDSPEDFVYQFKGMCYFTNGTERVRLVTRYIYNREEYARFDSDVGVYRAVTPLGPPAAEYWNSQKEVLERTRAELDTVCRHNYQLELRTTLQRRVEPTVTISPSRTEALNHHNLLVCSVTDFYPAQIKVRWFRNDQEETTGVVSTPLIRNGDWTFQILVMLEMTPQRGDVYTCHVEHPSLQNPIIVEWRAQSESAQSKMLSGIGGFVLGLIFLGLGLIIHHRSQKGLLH
# Description: N-terminal biotinylated peptide InsB:9-23 (or gliadin) were used to test for binding to BSM cells that express HLA-DQ8 on their surface. APC-streptavidin (BD Biosciences, Franklin Lakes, NJ) were used to detect the biotinylated peptides. […] After 24 hours incubation, cells were stained with PE-mouse anti-human HLA-DQ8 (BD Biosciences) and APC-streptavidin to detect the percent binding of the peptide to BSM cells with or without D-peptides. Percent binding was analyzed by flow cytometry.
# [2] = system: lymphocytes isolated from SJL-DQ8 mice immunized with GAD65; assay: Ex vivo T-cell activation to GAD65 peptide, lymphocytes of GAD65-immunized SJL-DQ8 mice; assay type: cell-based, mouse; settings: all peptides at 20 μg/ml; 48 hours
# Description: The mouse model used in this experiment was SJL-DQ8 mice. When immunized with different type 1 diabetes associated peptides, they developed strong T-cell responses to these peptides. In the ex vivo model, lymphocytes were taken from the spleen of these mice after immunization with an Insulin or GAD65 peptide. They were then stimulated with the peptide used for immunizations and the tested D-peptide was added to see if it blocked T-cell stimulation as measured by IL-2 and interferon γ (IFNγ) production (FIGS. 18 and 19).
# The cells were treated with medium or GAD65 (with or without D-peptides), all peptides at 20 μg/ml. Supernatants from stimulated lymphocytes were collected 48 hours after stimulation and stored at −80° C. until the Luminex assay was performed. The Milliplex mouse cytokines/chemokines magnetic panel (EMD Millipore Corporation, Billerica, MA) and a Luminex 200 with xPONENT software (Luminex, Austin, Texas) were used to assay the cytokines following the manufacturer's instructions.
# [3] = Pharmacokinetics of RI-CT in male CD-1 mice; settings: mouse, in vivo
# Description: 30 μL of each STD, QC sample and matrix for blanks was added to separate wells of a 96 well plate. 800 μL of water:MeOH (95:5, v/v) was added to the STDs, QCs and blanks. For study samples, 400 μL of water:MeOH (95:5, v/v) was added to each. Mouse whole blood samples were diluted 1:2 with 0.1% formic acid in an aqueous 25 mM EDTA solution when samples were collected; consequently, there was an initial dilution factor of 3. Additionally, 400 μL of water:MeOH (95:5, v/v) was added to each diluted sample. To all samples, 20 μL of internal standard (200 ng/mL tolbutamide) solution in water was added. The samples were vortexed vigorously for 5 minutes and then loaded onto a pre-conditioned Oasis HLB 96-well SPE plate. The Oasis HLB 96-well SPE plate was conditioned with 1 mL of methanol and then rinsed with 1 mL of water before the samples were loaded. Once loaded onto the Oasis HLB 96-well SPE plate, residual solution was removed by vacuum. The samples were eluted into a clean 96-well plate with 800 μL of ACN: 0.1% aqueous formic acid (70:30, v/v). The samples were evaporated to dryness under nitrogen at ambient temperature using a TurboVap 96 Concentration Workstation (Caliper Life Sciences). The residues were reconstituted in 150 μL of ACN: 0.1% aqueous formic acid (25:75, v/v) and 10 μL of 0.1 M TCEP. The samples were vortexed for approximately 10 minutes and then aliquots were injected for LC-MS/MS analysis.
# • LC System: System #731 • HPLC Pump: Shimadzu LC-30AD • Autosampler: Shimadzu SIL-30AC MP HPLC Conditions: • Mobile Phase A=0.1% Aqueous Formic Acid • Mobile Phase B=0.1% Formic Acid in ACN • Column Temperature=Ambient • Injection Volume=8 μL • Column=ACE C8, 2.1×50 mm, 5 μm • Flow rate=0.6 mL/min • MS/MS System: System #730 • SCIEX API 5500 Triple Quad (S/N 213451604) MS Conditions: • Scan Type=MRM • Polarity=Positive • Ion Source=ESI • CAD=10 • CUR=20 • GS1/GS2=50/50 • IS=2500 • TEM=550
# FIG. 23A = assay: FIG. 23A
# Description: Table printed on a drawing sheet, FIG. 23A
# Data from a dose of 10 mg/kg and a single discrete subcutaneous dose of 10 mg/kg are shown. FIG. 23B is a graph showing mean RI-CT whole blood concentrations in male CD-1 mice following a single IV bolus dose of 10 mg/kg and a single SC dose of 10 mg/kg. […] This is a long half-life that will make it feasible to use RI-CT in a clinical setting with a once daily dose.
# First reader's note: IV arm; the last four rows (n, Mean, SD, CV%) are summary statistics over the animals, and the urine values are one merged cell for Mouse 1-4.
structure (smiles),measurement,setting,value
CC(C)C[C@@H](NC(=O)[C@@H](Cc1ccc(O)cc1)NC(=O)[C@@H](CC(C)C)NC(=O)[C@H](NC(=O)[C@@H](CS)NC(=O)CNC(=O)[C@@H](CCC(=O)O)NC(=O)[C@@H](CCCNC(=N)N)NC(=O)CNC(=O)CN)C(C)C)C(=O)N[C@H](C)C(=O)N[C@H](CCC(=O)O)C(=O)N[C@@H](C(=O)NCC(=O)NCC(=O)O)C(C)C [RI-CT],inhibition of the binding of InsB:9-23 to DQ8 expressed on BSM cells (in words),[1],inhibits the binding
same,"blocking T cell activation ex vivo to GAD65 (IL-2, IFNγ production)",[2],some activity
same,clearance,"[3]; iv, 10 mg/kg",27 mL/min/kg
same,half-life,"[3]; iv, 10 mg/kg",7.46 h
same,AUC(0-inf),"[3]; sc, 10 mg/kg",4140 ng·h/mL
same,Cmax,"[3]; sc, 10 mg/kg",5120 ng/mL
same,Tmax,"[3]; sc, 10 mg/kg",0.77 h
same,bioavailability,"[3]; sc, 10 mg/kg",47%
same,half-life,"[3]; sc, 10 mg/kg",6.02 h
same,Vd,"[3]; IV, single dose of 10 mg/kg, whole blood, read-out: volume of distribution",6.9 L/kg
same,AUC0-24,FIG. 23A,5340 ng·h/mL
same,AUClast,FIG. 23A,4350 ng·h/mL and 6260 ng·h/mL and 5520 ng·h/mL
same,C0,FIG. 23A,15400 ng/mL
same,MRTinf,FIG. 23A,4.72 h
same,Urine | CLrenal,FIG. 23A,2.6 mL/min/kg
same,Urine | Recovery (%),FIG. 23A,8.70%
